Ends that are not written are not given here.

The text below walks through data of US20100234417A1, “THYROTROPIN RELEASING HORMONE RECEPTOR-OREXIN RECEPTOR HETERO-DIMERS/-OLIGOMERS” (DIMERIX BIOSCIENCE PTY LTD., priority 2006, published 2010).

One assay deals with TRHR335 with TRHR. Kind of assay: eBRET: TRHR335/Rluc + EGFP/barr1 + TRHR as IG3. The class given is cell-based. The settings on record: FIG. 9. The text has this:
Briefly, referring to FIGS. 1 to 3, the IGs are provided in the form of the two receptors (TRHR and OxR). One of the two is attached to an RC (IG1-RC1, IG3). A second IG (IG2-RC2) is derived from a molecule that interacts with the receptors upon ligand binding (e.g. beta-arrestin, or a mutant thereof). The detection system not only detects the formation of the TRHR-OxR heterodimer but can distinguish whether a ligand or drug acts as an agonist, partial agonist, antagonist, inverse agonist or partial inverse agonist at the receptor hetero-dimer.
Cells were seeded in 6-well plates at a density of approximately 630,000 cells/well (HEK293FT) or approximately 150,000 cells/well (COS-7) and maintained at 37° C., 5% CO2 in Complete Media (DMEM containing 0.3 mg/ml glutamine, 100 IU/ml penicillin and 100 μg/ml streptomycin (Gibco)) supplemented with 10% fetal calf serum (FCS; Gibco). […] BRET measurements were taken at 37° C. using the Victor Light plate reader with Wallac 1420 software (Perkin-Elmer). Filtered light emissions were sequentially measured for 3-5 s in each of the ‘donor wavelength window’ (400-475 nm) and ‘acceptor wavelength window’ (>500 nm for EGFP or 520-540 nm for EYFP, Topaz (TYFP) or Venus). […] Unless otherwise stated, BRET signals were measured in 96-well microplates. […]
In general terms: BRET reads energy transfer from a luciferase to a nearby fluorophore.

For assay [1], the system named is thyrotropin releasing hormone receptor/orexin receptor hetero-dimer/-oligomer (TRHR with OxR1). Kind of assay: eBRET: TRHR/Rluc + barr2/Venus + OxR1 as IG3 in HEK293 cells. The assay is classed as cell-based. As to conditions: TRHR/Rluc + barr2/Venus + OxR1; 10^−6M OxA; FIG. 6. As for the experimental part: Briefly, referring to FIGS. 1 to 3, the IGs are provided in the form of the two receptors (TRHR and OxR). One of the two is attached to an RC (IG1-RC1, IG3). A second IG (IG2-RC2) is derived from a molecule that interacts with the receptors upon ligand binding (e.g. beta-arrestin, or a mutant thereof).
Cells were seeded in 6-well plates at a density of approximately 630,000 cells/well (HEK293FT) or approximately 150,000 cells/well (COS-7) and maintained at 37° C., 5% CO2 in Complete Media (DMEM containing 0.3 mg/ml glutamine, 100 IU/ml penicillin and 100 μg/ml streptomycin (Gibco)) supplemented with 10% fetal calf serum (FCS; Gibco). Transient transfections were carried out 24 h after seeding using GeneJuice (Novagen) or Metafectene (Biontex) according to manufacturer instructions. 24 h post-transfection, cells were washed with PBS, detached using 0.05% trypsin/0.53 mM EDTA, resuspended in HEPES-buffered phenol red free Complete Media containing 5% FCS and added to a poly-L-lysine-coated white microplate (Nunc). 48 h post-transfection, eBRET assays were carried out following pre-incubation of cells with EnduRen™ (Promega) at a final concentration of 30-40 μM, at 37° C., 5% CO2 for 2 h. For original BRET studies, the HEPES-buffered phenol red free Complete Media was replaced with PBS and coelenterazine h (Molecular Probes) added to a final concentration of 5 μM immediately prior to commencing the assay. […] Filtered light emissions were sequentially measured for 3-5 s in each of the ‘donor wavelength window’ (400-475 nm) and ‘acceptor wavelength window’ (>500 nm for EGFP or 520-540 nm for EYFP, Topaz (TYFP) or Venus). The BRET signal observed between interacting proteins is normalized by subtracting the background BRET ratio. […] In this case, data are shown as ‘fluorescence/luminescence’ being the ratio of light emission through the ‘acceptor wavelength window’ over the 400-475 nm emission for a particular cell sample. Unless otherwise stated, BRET signals were measured in 96-well microplates. […]

For the substance “OxA: orexin A; known orexin receptor modulator, used as IG3 ligand (modulator) (QPLPDCCRQKTCSCRLYELLHGAGNHAAGILTL; ends and bridges not checked; cysteine pairing not given here; UniProt O43612 34-66, looked up)”, the results for the eBRET signal result (with TRHR335 with TRHR; in assay [1]) were “no eBRET signal above baseline” and “small eBRET signal”, respectively.
